Test results taken from PubChem BioAssay AID1963875 (Molecular Pharmacology Branch, DTP, NCI, 2024).

Tested on: KRAS-mutant PDC complex spheroid viability
Test: Anticancer human tumor 186277-243-T-J2-PDC patient-derived colon adenocarcinoma cell line growth inhibition [KRAS2]
Details: for IC50: curve of first compound; for viability, T/C: stronger effect = lower value
In short: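 KRAS-mutant tumor cells were grown as spheroids with HUVEC endothelial cells and human MSCs as stroma. Targeted agents were tested alone and with KRAS pathway inhibitors. Doses started at or near clinical Cmax, or 10 microM, descending half-log.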

[1] = second compound 0.1 µM, first compound 0.01 µM
[2] = second compound 0.1 µM, first compound 0.0316 µM
[3] = second compound 0.1 µM, first compound 0.1 µM
[4] = second compound 0.1 µM, first compound 0.316 µM
[5] = second compound 0.1 µM, first compound 1 µM
[6] = second compound 0.1 µM, first compound 3.16 µM
[7] = second compound 0.316 µM, first compound 0.01 µM
[8] = second compound 0.316 µM, first compound 0.0316 µM
[9] = second compound 0.316 µM, first compound 0.1 µM
[10] = second compound 0.316 µM, first compound 0.316 µM
[11] = second compound 0.316 µM, first compound 1 µM
[12] = second compound 0.316 µM, first compound 3.16 µM
[13] = second compound 1 µM, first compound 0.01 µM
[14] = second compound 1 µM, first compound 0.0316 µM
[15] = second compound 1 µM, first compound 0.1 µM
[16] = second compound 1 µM, first compound 0.316 µM
[17] = second compound 1 µM, first compound 1 µM
[18] = second compound 1 µM, first compound 3.16 µM
[19] = second compound 3.16 µM, first compound 0.01 µM
[20] = second compound 3.16 µM, first compound 0.0316 µM
[21] = second compound 3.16 µM, first compound 0.1 µM
[22] = second compound 3.16 µM, first compound 0.316 µM
[23] = second compound 3.16 µM, first compound 1 µM
[24] = second compound 3.16 µM, first compound 3.16 µM
[25] = second compound 10 µM, first compound 0.01 µM
[26] = second compound 10 µM, first compound 0.0316 µM
[27] = second compound 10 µM, first compound 0.1 µM
[28] = second compound 10 µM, first compound 0.316 µM
[29] = second compound 10 µM, first compound 1 µM
[30] = second compound 10 µM, first compound 3.16 µM
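Throughout, for viability, T/C: viability read after seven days of compound exposure; 100% = DMSO vehicle-treated spheroids so lower means less viable.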

| Compound | IC50 (second compound 0.1 µM) [nM] | IC50 (second compound 0.316 µM) [nM] | IC50 (second compound 1 µM) [nM] | IC50 (second compound 3.16 µM) [nM] | IC50 (second compound 10 µM) [nM] | viability, T/C [1] [%] | viability, T/C [2] [%] | viability, T/C [3] [%] | viability, T/C [4] [%] | viability, T/C [5] [%] | viability, T/C [6] [%] | viability, T/C [7] [%] | viability, T/C [8] [%] | viability, T/C [9] [%] | viability, T/C [14] [%] | viability, T/C [15] [%] | viability, T/C [20] [%] | viability, T/C [21] [%] | viability, T/C [26] [%] | viability, T/C [27] [%] | also measured |
| --- | --- | --- | --- | --- | --- | --- | --- | --- | --- | --- | --- | --- | --- | --- | --- | --- | --- | --- | --- | --- | --- |
| CC1COCCN1c1cc(-c2ccnn2C)c2ccnc(-c3ccn[nH]3)c2n1 (stereo not given) + CC1OCC2(CCN(c3cnc(Sc4ccnc(N)c4Cl)c(N)n3)CC2)C1N | 20.7 | 21.6 | 21.5 | 20.7 | 15.2 | 82.6 | 30.9 | 4.6 | 3.38 | 2.91 | 3.41 | 90.3 | 29.9 | 4.69 | 18.7 | 3.36 | 14.6 | 3.13 | 10.5 | 4.95 | viability, T/C [10]: 2.62%; viability, T/C [11]: 2.7%; viability, T/C [12]: 3.03%; viability, T/C [13]: 113%; viability, T/C [16]: 2.01%; viability, T/C [17]: 2.23%; viability, T/C [18]: 2.83%; viability, T/C [19]: 111%; viability, T/C [22]: 1.78%; viability, T/C [23]: 1.9%; viability, T/C [24]: 2.66%; viability, T/C [25]: 72.9%; viability, T/C [28]: 4.89%; viability, T/C [29]: 2.16%; viability, T/C [30]: 3.22% |
| Cn1nccc1Nc1nccc(-c2cc3c(s2)C(C)(C)N(CCN2CCOCC2)C3=O)n1 + CC1OCC2(CCN(c3cnc(Sc4ccnc(N)c4Cl)c(N)n3)CC2)C1N | 306 | 219 | 224 | 176 | 77.4 | – | 106 | 107 | 48.3 | 9.06 | 4.04 | – | 104 | 114 | 106 | 114 | 118 | 85.6 | 86.8 | 39.5 | viability, T/C (second compound 0.1 µM, first compound 10 µM): 5.66%; viability, T/C [10]: 22.5%; viability, T/C [11]: 7.68%; viability, T/C [12]: 2.95%; viability, T/C (second compound 0.316 µM, first compound 10 µM): 4.77%; viability, T/C [16]: 24.3%; viability, T/C [17]: 4.22%; viability, T/C [18]: 2.3%; viability, T/C (second compound 1 µM, first compound 10 µM): 3.66%; viability, T/C [22]: 13%; viability, T/C [23]: 2.81%; viability, T/C [24]: 1.49%; viability, T/C (second compound 3.16 µM, first compound 10 µM): 2.19%; viability, T/C [28]: 5.87%; viability, T/C [29]: 2.69%; viability, T/C [30]: 1.11%; viability, T/C (second compound 10 µM, first compound 10 µM): 1.69% |
| CC(=O)OC12COC1CC(O)C1(C)C(=O)C(O)C3=C(C)C(OC(=O)C(O)C(NC(=O)OC(C)(C)C)c4ccccc4)CC(O)(C(OC(=O)c4ccccc4)C21)C3(C)C (stereo not given) + CNCc1ccccc1-c1csc(C(C)Nc2nc(C)nc3cc(OC)c(OC)cc23)c1 | < 10 | < 10 | < 10 | < 10 | < 10 | 4.85 | 2.89 | 2.72 | 2.61 | 2.94 | 3.13 | 4.19 | 2.44 | 2.68 | 3.7 | 3.39 | 0.05 | 0.02 | 0.1 | 0.08 | viability, T/C [10]: 2.5%; viability, T/C [11]: 2.71%; viability, T/C [12]: 3.02%; viability, T/C [13]: 4.69%; viability, T/C [16]: 3.25%; viability, T/C [17]: 3.43%; viability, T/C [18]: 3.79%; viability, T/C [19]: 6.31%; viability, T/C [22]: 0.03%; viability, T/C [23]: 0.05%; viability, T/C [24]: 3%; viability, T/C [25]: 0.13%; viability, T/C [28]: 0.33%; viability, T/C [29]: 3.35%; viability, T/C [30]: 0.58% |
| CN(C)C/C=C/C(=O)Nc1cc2c(Nc3ccc(F)c(Cl)c3)ncnc2cc1O[C@H]1CCOC1 + CNCc1ccccc1-c1csc(C(C)Nc2nc(C)nc3cc(OC)c(OC)cc23)c1 | > 100 | > 100 | > 100 | 7.32 | < 0.316 | 117 | 127 | 108 | – | – | – | 119 | 109 | 96 | 119 | 95.9 | 16.4 | 5.67 | 0.13 | 0.33 | viability, T/C (second compound 0.1 µM, first compound 0.000316 µM): 100%; viability, T/C (second compound 0.1 µM, first compound 0.001 µM): 100%; viability, T/C (second compound 0.1 µM, first compound 0.00316 µM): 110%; viability, T/C (second compound 0.316 µM, first compound 0.000316 µM): 110%; viability, T/C (second compound 0.316 µM, first compound 0.001 µM): 96.2%; viability, T/C (second compound 0.316 µM, first compound 0.00316 µM): 113%; viability, T/C (second compound 1 µM, first compound 0.000316 µM): 108%; viability, T/C (second compound 1 µM, first compound 0.001 µM): 107%; viability, T/C (second compound 1 µM, first compound 0.00316 µM): 102%; viability, T/C [13]: 120%; viability, T/C (second compound 3.16 µM, first compound 0.000316 µM): 108%; viability, T/C (second compound 3.16 µM, first compound 0.001 µM): 103%; viability, T/C (second compound 3.16 µM, first compound 0.00316 µM): 109%; viability, T/C [19]: 29%; viability, T/C (second compound 10 µM, first compound 0.000316 µM): 0.21%; viability, T/C (second compound 10 µM, first compound 0.001 µM): 0.22%; viability, T/C (second compound 10 µM, first compound 0.00316 µM): 0.19%; viability, T/C [25]: 0.15% |
